Structures can show the parent of a compound that is named as a salt.
Molecular target: T1, γ-Secretase (Homo sapiens, UniProt P49768)
T1 construct: transfected H4 (human neuroglioma) cells stably expressing constructs containing wild-type and mutant forms of β-APP; endogenous in cells; host or cells: H4 human neuroglioma cells, stably transfected with beta-APP (the substrate, not the enzyme)
Experiment: Inhibition of γ-secretase: ELISA of β-AP made by transfected H4 cells in culture
Type: cell-based
Details: H4 (human neuroglioma) cells expressing β-APP (Swedish variant typically), approximately 16 hours incubation, β-AP in conditioned medium by ELISA
Description: Production and detection of β-AP made by cells in culture. The use of transfected H4 (human neuroglioma) cells stably expressing constructs containing wild-type and mutant forms of β-APP have been used to identify inhibitors of β-AP production. The Swedish variant of β-APP produces 5-7 fold more β-AP than the wild type and is typically used due to its enhanced signal. […] The capture antibody is typically a mouse monoclonal (IgG1/kβ-APPa). The antibody recognizes the carboxyl terminal epitope of β-AP. The specificity of the capture antibody ensures measurement of β-AP without interference by other secreted β-APP fragments that share amino acid sequence (β-AP1-16) with β-AP. The detecting antibody is typically an affinity purified rabbit polyclonal antibody, specific for the amino terminus of β-AP. In the cell-based assay conditioned medium from H4 cells is tested by ELISA for the quantity of β-AP present. The cell-based assay can be used to identify compounds that inhibit β-AP production. The assay should detect agents that inhibit cleavage at the β-secretase and/or the γ-secretase cleavage site as well as detecting any agent that interferes with the production and/or release of β-AP.
A typical ELISA-based assay requires plating of the transfected cells at a density sufficient for the rapid detection of the secreted β-AP (experimentally predetermined for a particular stable cell population) in a 96-well format. Cells are plated for at least six hours prior to the introduction of the test compound at which time the growth medium is replaced by fresh medium containing the agent to be tested. Test agents may typically consist of synthetic compounds, secondary metabolites from bacterial or fungal fermentation extracts, or extracts from plant or marine samples. All synthetic agents are initially screened at doses ranging from 10-100 μM or in the case of extracts at sufficient dilution to minimize cytotoxicity. Incubation of the cells with the test agent will continue for approximately 16 hours at which time equal aliquots of media from each sample well is removed and placed into a previously prepared ELISA plate for β-AP quantitation. The ELISA is carried out in a manner described by others (Haass, et al., 1992; Hawlow and Lane, 1988) and the β-AP signal quantitated. Results are obtained by analysis of the ELISA plate following development and comparison to the mock treated cell populations and samples in which known amounts of β-AP were added to construct a standard concentration curve. […] If a compound is found to be active, then a dose response experiment is performed to determine the lowest dose of compound necessary to elicit the inhibition of the production of β-AP.

| SMILES | Activity Rating (Inhibition of γ-Secretase) |
| --- | --- |
| CCCCNC(=O)[C@@H](C[C@H](O)[C@H](CC1CCCCC1)NC1CCC(C(C)C)CC1)C(C)C (relative stereo) [Example 44, [αS(αR*,γR*,δR*)]-N-butyl-γ-hydroxy-α-(1-methylethyl)-δ-[[4-(1-methylethyl)cyclohexyl]amino]cyclohexanehexanamide hydrochloride] | +++ (+++ < = 10) |
| CC(C)CCCN[C@@H](CC1CCCCC1)[C@@H](O)C[C@H](C(=O)NCCc1ccccc1)C(C)C (relative stereo) [Example 29, [αS-(αR*,γR*,δR*)]γ-hydroxy-α-(1-methylethyl)-δ-[(4-methylpentyl)amino]-N-(2-phenylethyl)cyclohexanehexanamide hydrochloride] | +++ (+++ < = 10) |
| CCCCNC(=O)[C@@H](C[C@H](O)[C@H](CC1CCCCC1)NCc1cccc(OC)c1)C(C)C (relative stereo) [Example 37, [αS-(αR*,γR*,δR*)]N-Butyl-γ-hydroxy-δ-[[(3-methoxyphenyl)methyl]amino]-α-(1-methylethyl)cyclohexanehexanamide hydrochloride] | ++ (++ > 10 & < = 25) |
| CC(C)CNC(=O)[C@@H](C[C@H](O)[C@H](CC1CCCCC1)NC1CCC(C)CC1)C(C)C (relative stereo) [Example 40, [αS(αR*,γR*,δR*)]-γ-Hydroxy-δ-[(4-methylcyclohexyl)amino]-α-(1-methylethyl)-N-(2-methylpropyl)cyclohexanehexanamide] | +++ (+++ < = 10) |
| CCCCNC(=O)[C@@H](C[C@H](O)[C@H](CC1CCCCC1)NCCC1CCCCC1)C(C)C (relative stereo) [Example 48, [αS(αR*,γR*,δR*)]-N-Butyl-δ-[(3-cyclohexyl)ethyl]amino-γ-hydroxy-α-(1-methylethyl)cyclohexanehexanamide hydrochloride] | +++ (+++ < = 10) |
| C=C(C)C[C@H](C[C@H](O)[C@H](CC1CCCCC1)NCCCC(C)C)C(=O)NCCCC (relative stereo) [Example 21, [αS-(αR*,γR*,δR*)]N-Butyl-γ-hydroxy-α-(2-methyl-2-propenyl)-δ-[(4-methylpentyl)amino]cyclohexanehexanamide hydrochloride] | +++ (+++ < = 10) |
| C=CC[C@H](C[C@H](O)[C@H](CC1CCCCC1)NCCCC(C)C)C(=O)NCCCC (relative stereo) [Example 23, [αS-(αR*,γR*,δR*)]N-Butyl-γ-hydroxy-δ-[(4-methylpentyl)amino]-α-(2-propenyl)cyclohexanehexanamide hydrochloride] | +++ (+++ < = 10) |

Reference: US5703129A, “5-amino-6-cyclohexyl-4-hydroxy-hexanamide derivatives as inhibitors of β-amyloid protein production” (Bristol-Myers Squibb Company, priority 1996, dated 1997)
